Measured values from the supplement of paper PMC11061612.

Columns and labels:
[1] = tested on: CCRF-CEM (T-Lymphoblastic Leukemia); assay: Bliss excess, mean over the matrix (fraction); higher = more synergy
In short: (§1)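 After 24 hours at 37°C and 5% CO2 in 1536-well plates, cells in DMEM/F12 or RPMI plus 10% FBS received two-drug dose matrices for 72 hours. Viability came from CellTiter-Glo 2.0 luminescence and was scaled as inhibition, anchored at 0 by vehicle wells and at 1 by blank wells. Combination Emax is taken as the second-highest inhibition in the matrix, and Bliss excess as the observed combination effect less EA + EB − EA·EB, with EA and EB the single-agent effects.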

HOS (Osteosarcoma) [2] = assay: as above
In short: as §1

[3] = tested on: NCI-H2085 (Non-Small Cell Lung Carcinoma); assay: as above
In short: as §1

NOS-1 (Osteosarcoma) = assay: as above
In short: as §1

[4] = tested on: RC-K8 (B-Cell Non-Hodgkin's Lymphoma); assay: as above
In short: as §1

[5] = tested on: RO82-W-1 (Thyroid Gland Carcinoma); assay: as above
In short: as §1

42-MG-BA (Glioblastoma) = assay: combination Emax (second highest fraction inhibited in the dose matrix, 72 h); higher = more inhibition; extreme values may be limits of the assay
In short: as §1

AGS (Gastric Carcinoma) = assay: as above
In short: as §1

[6] = tested on: HO-1-N-1 (Oral Cavity Carcinoma); assay: as above
In short: as §1

HOS (Osteosarcoma) [7] = assay: as above
In short: as §1

[8] = tested on: HT-1376 (Bladder Carcinoma); assay: as above
In short: as §1

[9] = tested on: HuP-T4 (Pancreatic Carcinoma); assay: as above
In short: as §1

KELLY (Neuroblastoma) = assay: as above
In short: as §1

[10] = tested on: KYSE-520 (Esophageal Squamous Cell Carcinoma); assay: as above
In short: as §1

[11] = tested on: LB831-BLC (Bladder Carcinoma); assay: as above
In short: as §1

[12] = tested on: LNCaP-Clone-FGC (Prostate Carcinoma); assay: as above
In short: as §1

[13] = tested on: LU-135 (Small Cell Lung Carcinoma); assay: as above
In short: as §1

[14] = tested on: ME-1 (Acute Myeloid Leukemia); assay: as above
In short: as §1

[15] = tested on: NCI-H2085 (Non-Small Cell Lung Carcinoma); assay: as above
In short: as §1

[16] = tested on: OVCA420 (Ovarian Carcinoma); assay: as above
In short: as §1
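For Bliss excess, mean over the matrix in this document: after 72 h of two-drug dosing.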

SMILES | Bliss excess [1] | Bliss excess (HOS (Osteosarcoma) [2]) | Bliss excess [3] | Bliss excess (NOS-1 (Osteosarcoma)) | Bliss excess [4] | Bliss excess [5] | combination Emax (42-MG-BA (Glioblastoma)) | combination Emax (AGS (Gastric Carcinoma)) | combination Emax [6] | combination Emax (HOS (Osteosarcoma) [7]) | combination Emax [8] | combination Emax [9] | combination Emax (KELLY (Neuroblastoma)) | combination Emax [10] | combination Emax [11] | combination Emax [12] | combination Emax [13] | combination Emax [14] | combination Emax [15] | combination Emax [16]
CN(CCO)CC[C@H](CSc1ccccc1)Nc1ccc(S(=O)(=O)NC(=O)c2ccc(N3CCC([C@@H](O)c4ccccc4-c4ccc(Cl)cc4)CC3)cc2)cc1S(=O)(=O)C(F)(F)F [AZD4320] + Cc1cc2ncnn2cc1Nc1ncc2c(n1)n(C1CCOCC1)c(=O)n2C [AZD7648] (first compound max 1 µM, 7x7, partner max 10 µM) | 0.0282 | -0.0225 | -0.0399 | 0.0375 | 0.0198 | -0.0613 | 0.312 | 0.318 | 0.226 | 0.134 | 0.786 | 0.156 | 0.493 | 0.23 | 0.214 | 0.415 | 1 | 1 | 0.177 | 0.157
CN(CCO)CC[C@H](CSc1ccccc1)Nc1ccc(S(=O)(=O)NC(=O)c2ccc(N3CCC([C@@H](O)c4ccccc4-c4ccc(Cl)cc4)CC3)cc2)cc1S(=O)(=O)C(F)(F)F [AZD4320] + Cn1cnc2c(F)c(Nc3ccc(Br)cc3Cl)c(C(=O)NOCCO)cc21 [Selumetinib] (first compound max 1 µM, 7x7, partner max 3 µM) | 0.0099 | 0.0245 | 0.032 | 0.0796 | 0.0467 | -0.0139 | 0.694 | 1 | 0.619 | 0.368 | 0.687 | 0.544 | 0.737 | 0.401 | 0.373 | 0.414 | 1 | 1 | 0.367 | 0.451
CC1(C)CCC(CN2CCN(c3ccc(C(=O)NS(=O)(=O)c4ccc(NCC5CCOCC5)c([N+](=O)[O-])c4)c(Oc4cnc5[nH]ccc5c4)c3)CC2)=C(c2ccc(Cl)cc2)C1 [Venetoclax] + C=CCn1c(=O)c2cnc(Nc3ccc(N4CCN(C)CC4)cc3)nc2n1-c1cccc(C(C)(C)O)n1 [AZD1775] (first compound max 1 µM, partner max 1 µM) | 0.0922 | -0.0335 | -0.063 | 0.0193 | -0.0082 | -0.0757 | 0.287 | 0.595 | 0.745 | 0.406 | 0.338 | 0.378 | 1 | 0.595 | 0.677 | 0.689 | 0.688 | 1 | 0.398 | 0.384
CC1(C)CCC(CN2CCN(c3ccc(C(=O)NS(=O)(=O)c4ccc(NCC5CCOCC5)c([N+](=O)[O-])c4)c(Oc4cnc5[nH]ccc5c4)c3)CC2)=C(c2ccc(Cl)cc2)C1 [Venetoclax] + CN(C)CCCOc1ccc(-c2ccc3ncc4c(c3c2)n(C2CCOCC2)c(=O)n4C)cn1 [AZD0156] (first compound max 1 µM, 7x7, partner max 1 µM) | 0.0436 | -0.033 | -0.0295 | -0.0358 | 0.0282 | -0.0586 | 0.367 | 0.221 | 0.53 | 0.152 | 0.189 | 0.144 | 0.976 | 0.181 | 0.228 | 0.35 | 0.274 | 1 | 0.186 | 0.178
NC1(C(=O)N[C@@H](CCO)c2ccc(Cl)cc2)CCN(c2ncnc3[nH]ccc23)CC1 [Capivasertib] + C[C@@H]1COCCN1C2=NC(=NC(=C2)C3(CC3)[S@](=N)(=O)C)C4=C5C=CNC5=NC=C4 [AZD6738] (first compound max 10 µM, 7x7, partner max 10 µM) | 0.0092 | -0.0463 | -0.0192 | -0.0057 | -0.0856 | -0.0247 | 0.775 | 0.837 | 0.869 | 0.844 | 0.377 | 0.446 | 0.962 | 0.678 | 0.539 | 0.989 | 0.793 | 0.277 | 0.504 | 0.516
CN(CCO)CC[C@H](CSc1ccccc1)Nc1ccc(S(=O)(=O)NC(=O)c2ccc(N3CCC([C@@H](O)c4ccccc4-c4ccc(Cl)cc4)CC3)cc2)cc1S(=O)(=O)C(F)(F)F [AZD4320] + CN(C)CCCOc1ccc(-c2ccc3ncc4c(c3c2)n(C2CCOCC2)c(=O)n4C)cn1 [AZD0156] (first compound max 1 µM, 7x7, partner max 1 µM) | 0.023 | -0.0317 | -0.0242 | 0.0203 | 0.0161 | -0.0258 | 0.274 | 0.237 | 0.156 | 0.0916 | 0.484 | 0.127 | 0.597 | 0.157 | 0.286 | 0.335 | 1 | 1 | 0.242 | 0.174
